In PubChem BioAssay AID743071 (Broad Institute, 2013):
Activity calls are given as the source filed them. The rule behind the calls is not given here.

Test system: M. tuberculosis wild type plus biotin, growth inhibition
Assay: mtb wild type strain growth inhibition with biotin, cell based, bioa project (AID 743071)
Settings: for IC90: measured here: Mtb growth IC90

Which results are given for `O=C(c1ccc2c(c1)OCO2)N1CCN(c2ccccc2)CC1`?
IC50: 22.8 µM; IC90: > 50 µM

`O=C(COc1ccc2ccc(=O)oc2c1)N1CCN(c2ccc(F)cc2)CC1` was tested. Which IC50 did it give?
The IC50 was > 50 µM (inactive).

And the IC90?
The IC90 was greater than 50 µM.

With `CC(=O)c1ccc(N2CCN(C(=O)c3ccc(Cl)cc3)CC2)cc1` as the compound, how does the IC50 read?
The IC50 was > 50 µM (inactive).

And the IC90?
Its IC90 is greater than 50 µM.

What does the source list for `CC(=O)c1ccc(N2CCN(C(=O)c3ccc4ncsc4c3)CC2)cc1`?
IC50: > 50 µM (inactive); IC90: > 50 µM

What does the source list for `Cc1ccc(/C=C(\CCC(=O)O)c2nc3ccccc3s2)cc1[N+](=O)[O-]`?
IC50: 2 µM; IC90: 8.7 µM

What does the source list for `COc1cc(/C=C/C(=O)Nc2cccnc2)cc(OC)c1OC`?
IC50: > 50 µM (inactive); IC90: > 50 µM

For `O=C(Nc1cccnc1)c1cnn2c(C(F)(F)F)cc(-c3ccccc3)nc12`, which IC50 is on record?
The IC50 was > 50 µM (inactive).

And the IC90?
The IC90 was greater than 50 µM.

What does the source list for `COc1ccc(NC(=O)N2CCN(c3ccccc3)CC2)cc1`?
IC50: > 50 µM (inactive); IC90: > 50 µM

`Cc1ccc(/C=C(\CCC(=O)O)c2nc3ccccc3s2)cc1` was tested. Which IC50 did it give?
Its IC50 is 2.2 µM.

What about the IC90 of the same compound?
The IC90 was 5.6 µM.

`CC(=O)c1ccc(N2CCN(C(=O)c3ccc(C)cc3)CC2)cc1` was tested. Which IC50 did it give?
Its IC50 is > 50 µM (inactive).

And the IC90?
The IC90 was greater than 50 µM.

`Cc1ccc(-c2cc(C(F)(F)F)n3nc(C(=O)Nc4cccnc4)cc3n2)cc1` was tested. Which IC50 did it give?
Its IC50 is > 50 µM (inactive).

And the IC90?
Its IC90 is greater than 50 µM.

`O=C(Nc1ccc(Cl)c(-c2nc3ccccc3[nH]2)c1)c1cccnc1` was tested. Which IC50 did it give?
The IC50 was 6.5 µM.

What about the IC90 of the same compound?
Its IC90 is greater than 50 µM.

With `CCOC(=O)N1CCN(C(=O)Nc2ccc3snnc3c2)CC1` as the compound, how does the IC50 read?
Its IC50 is 50 µM.

What about the IC90 of the same compound?
Its IC90 is greater than 50 µM.

What does the source list for `O=C(c1ccc2c(c1)OCO2)N1CCN(c2ccc(Cl)cc2)CC1`?
IC50: 12.7 µM; IC90: 42.7 µM

How did the IC50 turn out when `CC(=O)c1ccc(N2CCN(C(=O)c3cccc(Cl)c3)CC2)cc1` was run?
Its IC50 is > 50 µM (inactive).

What about the IC90 of the same compound?
Its IC90 is greater than 50 µM.

Which results are given for `O=C(Nc1ccc2snnc2c1)N1CCN(c2ccccc2)CC1`?
IC50: > 50 µM (inactive); IC90: > 50 µM

`O=C(O)CC/C(=C\c1ccc([N+](=O)[O-])cc1)c1nc2ccccc2s1` was tested. Which IC50 did it give?
The IC50 was 8.2 µM.

What about the IC90 of the same compound?
Its IC90 is greater than 50 µM.

`CC(=O)c1ccc(N2CCN(Cc3ccc4c(c3)OCO4)CC2)cc1` was tested. Which IC50 did it give?
The IC50 was 50 µM.

And the IC90?
Its IC90 is greater than 50 µM.

What does the source list for `O=C(Nc1ccc(Cl)cc1)c1cc2nc(C3CC3)cc(C(F)(F)F)n2n1`?
IC50: > 50 µM (inactive); IC90: > 50 µM

With `CC(=O)c1ccc(N2CCN(C(=O)c3ccccc3)CC2)cc1` as the compound, how does the IC50 read?
Its IC50 is > 50 µM (inactive).

And the IC90?
Its IC90 is greater than 50 µM.

Which results are given for `CC(=O)c1ccc(N2CCN(C(=O)c3ccc4c(c3)OCO4)CC2)cc1`?
IC50: > 50 µM (inactive); IC90: > 50 µM

With `O=C(Nc1cccc(F)c1)N1CCN(c2ccccc2)CC1` as the compound, how does the IC50 read?
Its IC50 is 7.9 µM.

What about the IC90 of the same compound?
Its IC90 is greater than 50 µM.

Which results are given for `COc1ccc(C(=O)N2CCN(c3ccc(C(C)=O)cc3)CC2)cc1`?
IC50: 81.4 µM (inactive); IC90: > 50 µM

With `O=C(Nc1ccncc1)c1cc2nc(C3CC3)cc(C(F)F)n2n1` as the compound, how does the IC50 read?
The IC50 was > 50 µM (inactive).

What about the IC90 of the same compound?
Its IC90 is greater than 50 µM.

Which IC50 does the source give for `COc1cccc(C(=O)N2CCN(c3ccc(C(C)=O)cc3)CC2)c1` here?
Its IC50 is > 50 µM (inactive).

What about the IC90 of the same compound?
The IC90 was greater than 50 µM.

For `O=C(Nc1ccc(F)cc1)N1CCN(c2ccccc2)CC1`, which IC50 is on record?
Its IC50 is 19.8 µM.

What about the IC90 of the same compound?
Its IC90 is greater than 50 µM.

With `O=C(Nc1cccnc1)c1cnn2c(C(F)F)cc(C3CC3)nc12` as the compound, how does the IC50 read?
The IC50 was > 50 µM (inactive).

And the IC90?
The IC90 was greater than 50 µM.

What does the source list for `Cc1nc2cc(NC(=O)N3CCN(c4ccccc4)CC3)ccc2o1`?
IC50: 50 µM; IC90: > 50 µM

How did the IC50 turn out when `COc1cccc(NC(=O)N2CCN(c3ccccc3)CC2)c1` was run?
Its IC50 is 50 µM.

What about the IC90 of the same compound?
Its IC90 is greater than 50 µM.

Which results are given for `O=C(Nc1ccc2snnc2c1)N1CCCCC1`?
IC50: 50 µM; IC90: > 50 µM

`CCc1ccc(N2CCN(C(=O)c3ccc4c(c3)OCO4)CC2)cc1` was tested. Which IC50 did it give?
The IC50 was 8.7 µM.

What about the IC90 of the same compound?
Its IC90 is greater than 50 µM.

Which results are given for `Cc1cc(C)n2nc(C(=O)Nc3cccnc3)nc2n1`?
IC50: > 50 µM (inactive); IC90: > 50 µM

Which results are given for `O=C(Nc1ccc2[nH]ccc2c1)N1CCN(c2ccccc2)CC1`?
IC50: 8.5 µM; IC90: > 50 µM

For `O=C(Nc1cccc(Cl)c1)N1CCN(c2ccccc2)CC1`, which IC50 is on record?
Its IC50 is 5.5 µM.

And the IC90?
The IC90 was greater than 50 µM.

Which IC50 does the source give for `O=C(Nc1cccnc1)c1cc2nc(-c3cccs3)cc(C(F)(F)F)n2n1` here?
Its IC50 is > 50 µM (inactive).

What about the IC90 of the same compound?
The IC90 was greater than 50 µM.

How did the IC50 turn out when `CC(=O)c1ccc(N2CCN(C(=O)c3ccc(F)cc3)CC2)cc1` was run?
Its IC50 is > 50 µM (inactive).

What about the IC90 of the same compound?
Its IC90 is greater than 50 µM.

Which IC50 does the source give for `O=C(Nc1ccccc1)N1CCN(c2ccccc2)CC1` here?
The IC50 was 11.7 µM.

And the IC90?
The IC90 was greater than 50 µM.

For `CC(=O)c1ccc(N2CCN(C(=O)c3ccc(Br)cc3)CC2)c(F)c1`, which IC50 is on record?
The IC50 was > 50 µM (inactive).

What about the IC90 of the same compound?
The IC90 was greater than 50 µM.

Which IC50 does the source give for `O=C(c1ccc2c(c1)OCO2)N1CCN(Cc2ccccc2)CC1` here?
Its IC50 is > 50 µM (inactive).

And the IC90?
Its IC90 is greater than 50 µM.

How did the IC50 turn out when `O=C(Nc1ccc2snnc2c1)N1CCOCC1` was run?
The IC50 was > 50 µM (inactive).

And the IC90?
Its IC90 is greater than 50 µM.

How did the IC50 turn out when `COc1ccc(-c2cc(C(F)(F)F)n3nc(C(=O)Nc4cccnc4)cc3n2)cc1` was run?
Its IC50 is > 50 µM (inactive).

And the IC90?
Its IC90 is greater than 50 µM.

How did the IC50 turn out when `Cc1cccc(/C=C(\CCC(=O)O)c2nc3ccccc3s2)c1` was run?
Its IC50 is 3.1 µM.

What about the IC90 of the same compound?
The IC90 was 11.6 µM.

With `O=C(O)CC/C(=C\c1ccccc1[N+](=O)[O-])c1nc2ccccc2s1` as the compound, how does the IC50 read?
The IC50 was > 50 µM (inactive).

And the IC90?
The IC90 was greater than 50 µM.

With `CC(C)(C)c1ccc(C(=O)N2CCN(c3ccc4c(c3)OCO4)CC2)cc1` as the compound, how does the IC50 read?
The IC50 was 15 µM.

What about the IC90 of the same compound?
Its IC90 is greater than 50 µM.

Which IC50 does the source give for `O=C(Nc1cccnc1)N1CCN(c2ccccc2)CC1` here?
Its IC50 is > 50 µM (inactive).

And the IC90?
The IC90 was greater than 50 µM.

`CCN(CC)c1ccc2cc(C(=O)c3cccs3)c(=O)oc2c1` was tested. Which IC50 did it give?
The IC50 was 5.5 µM.

What about the IC90 of the same compound?
The IC90 was greater than 50 µM.

For `Cc1ccccc1/C=C(\CCC(=O)O)c1nc2ccccc2s1`, which IC50 is on record?
The IC50 was 8.4 µM.

And the IC90?
Its IC90 is 40.4 µM.

For `COc1ccc(N2CCN(C(=O)c3ccc4c(c3)OCO4)CC2)cc1`, which IC50 is on record?
The IC50 was 10.1 µM.

What about the IC90 of the same compound?
The IC90 was greater than 50 µM.

`CCc1ccc(C(=O)N2CCN(Cc3ccc4c(c3)OCO4)CC2)cc1` was tested. Which IC50 did it give?
The IC50 was 8.8 µM.

And the IC90?
The IC90 was greater than 50 µM.

Which IC50 does the source give for `Cc1nc2ccc(NC(=O)N3CCN(c4ccccc4)CC3)cc2s1` here?
The IC50 was 1.9 µM.

What about the IC90 of the same compound?
The IC90 was 7.3 µM.

Which IC50 does the source give for `CC(=O)c1ccc(N2CCN(C(=O)c3cccc(F)c3)CC2)cc1` here?
The IC50 was > 50 µM (inactive).

What about the IC90 of the same compound?
Its IC90 is greater than 50 µM.

`Cc1ccc(/C=C(\CCCC(=O)O)c2nc3ccccc3s2)cc1[N+](=O)[O-]` was tested. Which IC50 did it give?
Its IC50 is 9.6 µM.

What about the IC90 of the same compound?
Its IC90 is greater than 50 µM.

For `COC(=O)c1c(C(=O)OC)c(-c2cccc(F)c2)n2c1CS(=O)C2` (stereo not given), which IC50 is on record?
Its IC50 is > 50 µM (inactive).

What about the IC90 of the same compound?
Its IC90 is greater than 50 µM.

Which IC50 does the source give for `CC(=O)c1ccc(N2CCN(C(=O)c3ccc4c(c3)OCCO4)CC2)cc1` here?
The IC50 was > 50 µM (inactive).

What about the IC90 of the same compound?
The IC90 was greater than 50 µM.

Which results are given for `Cc1ccc(/C=C(\CC(=O)O)c2nc3ccccc3s2)cc1[N+](=O)[O-]`?
IC50: 7.2 µM; IC90: > 50 µM

`CC(=O)c1ccc(N2CCN(C(=O)c3cccnc3)CC2)cc1` was tested. Which IC50 did it give?
The IC50 was > 50 µM (inactive).

What about the IC90 of the same compound?
The IC90 was greater than 50 µM.

What does the source list for `COc1cccc(NC(=O)CCC2CCN(C(=O)c3ccc(C(C)=O)s3)CC2)c1`?
IC50: > 50 µM (inactive); IC90: > 50 µM

How did the IC50 turn out when `Cc1ccc(NC(=O)N2CCN(c3ccccc3)CC2)cc1` was run?
Its IC50 is 8 µM.

What about the IC90 of the same compound?
The IC90 was greater than 50 µM.

How did the IC50 turn out when `Cc1cc(C)n2nc(C(=O)Nc3cccnc3)cc2n1` was run?
The IC50 was > 50 µM (inactive).

And the IC90?
The IC90 was greater than 50 µM.

Which results are given for `O=C(c1ccc2c(c1)OCO2)N1CCN(c2ccc(F)cc2)CC1`?
IC50: 18.9 µM; IC90: > 50 µM
